Assay results reported in PubChem BioAssay (NCI).
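Briefly, cells in 96-well plates were exposed to five compound concentrations for 48 h, and endpoints were estimated by linear interpolation. GI50 is the concentration that inhibits growth by half. Definition used: TGI = concentration required for complete inhibition of growth.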

Tests used:
Assay in all cases: inhibition of tumour cell growth, NCI panel, 48 h
HS 578T breast = tested on: HS 578T breast
SF-295 CNS = tested on: SF-295 CNS
OVCAR-5 ovarian = tested on: OVCAR-5 ovarian
786-0 renal = tested on: 786-0 renal
ACHN renal = tested on: ACHN renal
HCT-15 colon = tested on: HCT-15 colon
OVCAR-3 ovarian = tested on: OVCAR-3 ovarian
K-562 leukemia = tested on: K-562 leukemia
LOX IMVI melanoma = tested on: LOX IMVI melanoma
KM12 colon = tested on: KM12 colon
U251 CNS = tested on: U251 CNS
SF-268 CNS = tested on: SF-268 CNS
SN12C renal = tested on: SN12C renal
UACC-62 melanoma = tested on: UACC-62 melanoma
SR leukemia = tested on: SR leukemia
UO-31 renal = tested on: UO-31 renal
OVCAR-4 ovarian = tested on: OVCAR-4 ovarian
NCI/ADR-RES ovarian = tested on: NCI/ADR-RES ovarian
HL-60(TB) leukemia = tested on: HL-60(TB) leukemia
NCI-H23 lung = tested on: NCI-H23 lung
NCI-H460 lung = tested on: NCI-H460 lung
MDA-MB-231 breast = tested on: MDA-MB-231 breast
SW-620 colon = tested on: SW-620 colon
CCRF-CEM leukemia = tested on: CCRF-CEM leukemia
NCI-H522 lung = tested on: NCI-H522 lung
MALME-3M melanoma = tested on: MALME-3M melanoma
OVCAR-8 ovarian = tested on: OVCAR-8 ovarian
TK-10 renal = tested on: TK-10 renal
UACC-257 melanoma = tested on: UACC-257 melanoma
PC-3 prostate = tested on: PC-3 prostate
HCC-2998 colon = tested on: HCC-2998 colon
SNB-75 CNS = tested on: SNB-75 CNS
DU-145 prostate = tested on: DU-145 prostate
T-47D breast = tested on: T-47D breast
HCT-116 colon = tested on: HCT-116 colon
RPMI-8226 leukemia = tested on: RPMI-8226 leukemia
SK-MEL-5 melanoma = tested on: SK-MEL-5 melanoma
A549 NSCLC = tested on: A549 NSCLC
SK-MEL-28 melanoma = tested on: SK-MEL-28 melanoma
MOLT-4 leukemia = tested on: MOLT-4 leukemia
CAKI-1 renal = tested on: CAKI-1 renal
NCI-H226 lung = tested on: NCI-H226 lung
MCF7 breast = tested on: MCF7 breast
HT29 colon = tested on: HT29 colon
M14 melanoma = tested on: M14 melanoma
COLO 205 colon = tested on: COLO 205 colon
SK-OV-3 ovarian = tested on: SK-OV-3 ovarian
IGROV1 ovarian = tested on: IGROV1 ovarian
SNB-19 CNS = tested on: SNB-19 CNS
MDA-MB-435 = tested on: MDA-MB-435
HOP-92 NSCLC = tested on: HOP-92 NSCLC
SK-MEL-2 melanoma = tested on: SK-MEL-2 melanoma
HOP-62 NSCLC = tested on: HOP-62 NSCLC
SF-539 CNS = tested on: SF-539 CNS
BT-549 breast = tested on: BT-549 breast
EKVX NSCLC = tested on: EKVX NSCLC
RXF 393 renal = tested on: RXF 393 renal

## O=S(=O)(Nc1cc(F)cc(F)c1)c1ccc(-c2cnc(C3CC3)o2)cc1
HS 578T breast
  GI50: 1.83 µM
  TGI: 8.6 µM
SF-295 CNS
  GI50: 1.29 µM
  TGI: 11.7 µM
OVCAR-5 ovarian
  GI50: 6.12 µM
  TGI: > 100 µM
786-0 renal
  GI50: 5.05 µM
  TGI: > 100 µM
ACHN renal
  GI50: 4.92 µM
  TGI: > 100 µM
HCT-15 colon
  GI50: 0.702 µM
  TGI: 47.9 µM
OVCAR-3 ovarian
  GI50: 1.57 µM
  TGI: 15.6 µM
K-562 leukemia
  GI50: 0.582 µM
  TGI: > 100 µM
LOX IMVI melanoma
  GI50: 4.34 µM
  TGI: > 100 µM
KM12 colon
  GI50: 0.869 µM
  TGI: 32 µM
U251 CNS
  GI50: 3.28 µM
  TGI: > 100 µM
SF-268 CNS
  GI50: 6.73 µM
  TGI: 48.8 µM
SN12C renal
  GI50: 4.87 µM
  TGI: 59.6 µM
UACC-62 melanoma
  GI50: 0.94 µM
  TGI: 20 µM
SR leukemia
  GI50: 0.513 µM
  TGI: > 100 µM
UO-31 renal
  GI50: 4.69 µM
  TGI: > 100 µM
OVCAR-4 ovarian
  GI50: 5.93 µM
  TGI: 90.9 µM
NCI/ADR-RES ovarian
  GI50: 1.7 µM
  TGI: 68.1 µM
HL-60(TB) leukemia
  GI50: 2.12 µM
  TGI: 13.8 µM
NCI-H23 lung
  GI50: 4.55 µM
  TGI: 77.1 µM
NCI-H460 lung
  GI50: 2.64 µM
  TGI: 21.4 µM
MDA-MB-231 breast
  GI50: 6.46 µM
  TGI: 41.7 µM
SW-620 colon
  GI50: 1.12 µM
  TGI: > 100 µM
CCRF-CEM leukemia
  GI50: 2.44 µM
  TGI: > 100 µM
NCI-H522 lung
  GI50: 2.03 µM
  TGI: 40.4 µM
MALME-3M melanoma
  GI50: 2.98 µM
  TGI: 70.1 µM
OVCAR-8 ovarian
  GI50: 4.31 µM
  TGI: > 100 µM
TK-10 renal
  GI50: 8.65 µM
  TGI: 68.7 µM
UACC-257 melanoma
  GI50: 12.3 µM
  TGI: 52.9 µM
PC-3 prostate
  GI50: 1.99 µM
  TGI: > 100 µM
HCC-2998 colon
  GI50: 5.62 µM
  TGI: 44.2 µM
SNB-75 CNS
  GI50: 1.05 µM
  TGI: 3.98 µM
DU-145 prostate
  GI50: 4.11 µM
  TGI: > 100 µM
T-47D breast
  GI50: 3.08 µM
  TGI: 79.9 µM
HCT-116 colon
  GI50: 3.04 µM
  TGI: > 100 µM
RPMI-8226 leukemia
  GI50: 3.44 µM
  TGI: 66.2 µM
SK-MEL-5 melanoma
  GI50: 3.27 µM
  TGI: 13.1 µM
A549 NSCLC
  GI50: 3.8 µM
  TGI: > 100 µM
SK-MEL-28 melanoma
  GI50: 13.3 µM
  TGI: > 100 µM
MOLT-4 leukemia
  GI50: 3.73 µM
  TGI: > 100 µM
CAKI-1 renal
  GI50: 1.19 µM
  TGI: 38.4 µM
NCI-H226 lung
  GI50: 3.88 µM
  TGI: 53 µM
MCF7 breast
  GI50: 1.45 µM
  TGI: > 100 µM
HT29 colon
  GI50: 1.76 µM
  TGI: 12.9 µM
M14 melanoma
  GI50: 1.85 µM
  TGI: > 100 µM
COLO 205 colon
  GI50: 2.08 µM
  TGI: 12.3 µM
SK-OV-3 ovarian
  GI50: 3.8 µM
  TGI: 42 µM
IGROV1 ovarian
  GI50: 2.01 µM
  TGI: > 100 µM
SNB-19 CNS
  GI50: 3.73 µM
  TGI: > 100 µM
MDA-MB-435
  GI50: 0.305 µM
  TGI: 2.09 µM
HOP-92 NSCLC
  GI50: 1.68 µM
  TGI: 11.4 µM
SK-MEL-2 melanoma
  GI50: 4.51 µM
  TGI: 41.6 µM
HOP-62 NSCLC
  GI50: 2.6 µM
  TGI: 33.6 µM
SF-539 CNS
  GI50: 2.52 µM
  TGI: 14.6 µM
BT-549 breast
  GI50: 3.33 µM
  TGI: 46.7 µM
EKVX NSCLC
  GI50: 5.31 µM
  TGI: > 100 µM
RXF 393 renal
  GI50: 1.66 µM
  TGI: 6.79 µM
